Measurements: patent US20010009913A1, “Anxiety method” (priority 1999, published 2001)
Entries after “also recorded” stand apart in the source; their conditions may differ. Where two headings read alike, the source gives them in different places.

Legend:
human 5-HT1A receptor = biological target: T1, human 5-HT1A receptor (Homo sapiens, UniProt P08908); experiment: 5-HT1A receptor binding assay; details: for Ki: read-out: K1 value
T1 construct: expressed in transfected cells; host or cells: HEK293 cells
T1 sequence (P08908 1-422): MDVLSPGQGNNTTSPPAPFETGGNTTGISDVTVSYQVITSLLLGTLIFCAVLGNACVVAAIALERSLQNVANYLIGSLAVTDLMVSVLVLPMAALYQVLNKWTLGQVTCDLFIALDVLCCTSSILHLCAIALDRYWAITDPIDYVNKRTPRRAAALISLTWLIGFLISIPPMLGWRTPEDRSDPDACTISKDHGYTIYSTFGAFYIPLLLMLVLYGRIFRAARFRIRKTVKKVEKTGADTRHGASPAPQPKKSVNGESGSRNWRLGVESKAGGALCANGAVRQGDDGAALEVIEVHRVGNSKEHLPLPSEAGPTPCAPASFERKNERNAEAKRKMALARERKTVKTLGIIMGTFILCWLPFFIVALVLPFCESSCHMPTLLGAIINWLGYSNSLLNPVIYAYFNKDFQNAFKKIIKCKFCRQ
Experimental: Membranes are prepared for binding using the human 5-HT1A receptor expressed in HEK293 cells. Cells are collected and ruptured using a dounce homogenizer. The cells are spun at 18000xg for 10 minutes and the pellet is resuspended in assay buffer, frozen in liquid nitrogen and kept at −80° C. until the day of the assay.
A total of 30 ug protein is used per well. The assay is carried out in 96-deep-well plates. The assay buffer is 50 mM HEPES containing 2.5 mM MgCl2 and 2 mM EGTA. […] 10 mM serotonin serves as blocking agent to determine non-specific binding. The reaction is terminated by the addition of 1 ml of ice cold 50 mM HEPES buffer and rapid filtration through a Brandel Cell Harvester using Whatman GF/B filters. The filter pads are counted in an LKB Trilux liquid scintillation counter. IC50 values are determined using non-linear regression by Excel-fit.

[1] = Human pharmacokinetic study, oral buspirone BID for 25 days
rat pups = experiment: Rat pup isolation-induced ultrasonic vocalization test (vocalization and locomotor activity); format: in vivo; details: sc, 30 min prior to test; for ID50, dose predicted to reduce the number of ultrasonic calls by 50%: 9-11 day old rat pups, cold plate
Excerpt: Ultrasonic vocalizations emitted by rat pups following isolation from their mother and littermates and subjected to a variety of environmental stimuli (e.g., cold temperature) has proven to be a sensitive method for assessing potential anxiolytic and anxiogenic compounds (Winslow and Insel, 1991, Psychopharmacology, 105:513-520). Psychoactive compounds purported to be anxiolytic suppress the frequency of ultrasonic calls whereas, calls are increased by drugs with anxiogenic properties. More importantly, the isolation-induced ultrasonic vocalization paradigm appears to be most sensitive for detecting anxiolytic properties across a broad spectrum of drug classes such as benzodiazepines, 5-HT reuptake inhibitors, 5-HT1A agonists as well as NMDA antagonists.
Harlan Sprague-Dawley rat pups (male and female) were housed in polycarbonate cages with the dam until 9-11 days old. Thirty minutes before testing, pups were removed from the dam, placed into a new cage with a small amount of home bedding and brought into the lab and placed under a light to maintain body temperature at 37° C. Pups were then weighed, sexed, marked and returned to the litter group until behavioral assessment. Testing took place in a Plexiglas recording chamber that contained a metal plate maintained at (18-20° C.) with a 5×5 cm grid drawn on the plate. A microphone was suspended 10 cm above the plate to record ultrasonic vocalizations. Ultrasonic calls were recorded using the Noldus UltraVox system providing on-line analysis of the frequency and duration of calls. The number of grid cells entered by the pup was also collected by visual scoring. […] Immediately following the collection of the baseline measures, pups were injected with vehicle or drug subcutaneously at the nape of the neck and returned to its littermates. […] Baseline differences and percent change from baseline for the frequency of ultrasonic vocalizations and grid cell crossings were analyzed using a one-way ANOVA. […]

[2] = Gammans et al. 1986; cited from earlier work
dorsal raphe neurons [3] = details: VanderMaelen et al. 1986; cited from earlier work
[4] = Modified Vogel Conflict test; format: in vivo; details: earlier in-house testing
Excerpt: Earlier in-house functional testing of BMY 28674 utilized an in vivo test method based on modification of the Vogel Conflict test, a simple reliable conflict procedure for testing antianxiety agents (see: Vogel, et al., Psychopharmacologia, (Berl.) 21, pp.1-7, 1971). […] No useful antianxiety activity has been ascribed to BMY 28674 previously.

dorsal raphe neurons [5] = experiment: Inhibition of dorsal raphe neuronal firing after systemic administration; format: in vivo; details: previous in-house testing, I.V. and intragastric, rats
Excerpt: See: VanderMaelen, et al., Eur. J. Pharmacol., 129, pp. 123-30, 1986. While one metabolite, the structural fragment 1-(2-pyrimidinyl)piperazine, also known as 1-PP, [drawing 3]

CYP3A4 = experiment: Inhibition of the metabolism of buspirone by ketoconazole in pooled HLM; details: ketoconazole concentrations up to 0.125 μM
[6] = membranes of HEK293 cells, 1 nM 3H-8-OH-DPAT, read-out: IC50
[7] = membranes of HEK293 cells, 1 nM 3H-8-OH-DPAT

O=C1CC2(CCCC2)CC(=O)N1CCCCN1CCN(c2ncc(O)cn2)CC1 [5-OH-buspirone (BMY 14131)]
IC50 (human 5-HT1A receptor; [6]): 928 nM
Ki (human 5-HT1A receptor; [7]): 464 nM

O=C1CC2(CCCC2)CC(=O)N1CCCCN1CCN(c2ncccn2)CC1 [Buspirone]
concentration at 2 h ([1]; human, blood, po): < 1 ng/mL
safety and tolerability ([1]; multiple oral doses, five dose levels 5-30 mg BID, healthy adults, 25 days): safe and generally well tolerated
mean blood level concentration of buspirone ([1]; oral buspirone BID, at the higher doses, FIG. 3): 1 to 2 ng/mL
ID50, dose predicted to reduce the number of ultrasonic calls by 50% (rat pups): 0.10 mg/kg
variation of maximum plasma concentration between individuals [2]: up to 10 fold
inhibition of firing of dorsal raphe neurons (dorsal raphe neurons [3]): potently inhibits

O=C1CC2(CCCC2)C(O)C(=O)N1CCCCN1CCN(c2ncccn2)CC1 (centres unmarked) [BMY 28674, 6-hydroxy-8-[4-[4-(2-pyrimidinyl)-piperazinyl]-butyl]-8-azaspiro[4.5]-7,9-dione]
blood concentration of BMY 28674 relative to 1-PP ([1]; after oral buspirone, human subjects): several-fold greater; also recorded: several-fold higher
antianxiety response in the Vogel test [4]: did not elicit an antianxiety response
IC50 (human 5-HT1A receptor; [6]): 114 nM
Ki (human 5-HT1A receptor; [7]): 57 nM
ID50, dose predicted to reduce the number of ultrasonic calls by 50% (rat pups): 0.13 mg/kg
ID50 dose estimated to reduce locomotor activity (rat pups; grid cell crossings): 0.41 mg/kg

c1cnc(N2CCNCC2)nc1 [1-PP, 1-(2-pyrimidinyl)piperazine]
IC50 (human 5-HT1A receptor): > 1000 nM
binding / affinity at the 5-HT1A receptor (human 5-HT1A receptor): does not demonstrate binding
inhibition of dorsal raphe neuronal firing (dorsal raphe neurons [5]): weak inhibition

O=C1CC2(CCC(O)C2)CC(=O)N1CCCCN1CCN(c2ncccn2)CC1 (centres unmarked) [3-OH-buspirone (BMY 14295)]
IC50 (human 5-HT1A receptor; [6]): 652 nM
Ki (human 5-HT1A receptor; [7]): 326 nM

CC(=O)N1CCN(c2ccc(OCC3COC(Cn4ccnc4)(c4ccc(Cl)cc4Cl)O3)cc2)CC1 (centres unmarked) [ketoconazole]
effect on buspirone metabolism (CYP3A4): No effect
